The record followed here is patent US11638706B2, “Methods for treating Huntington's disease” (PTC Therapeutics, Inc., priority 2015, dated 2023).

pIC50: −log10 of the molar value.

One may read the pIC50 as −log10 of the IC50, conventionally taken in molar units. Read a high pIC50 as a low IC50.

The assay has as its system Huntingtin protein (HTT). The assay is described as follows: Endogenous Huntingtin Protein Assay (MSD electrochemiluminescence ELISA; MW1 or MAB2166 capture, #5656S detection). The class given is cell-based, human. The method, then:
The Endogenous Huntingtin Protein assay used in Example 2 was developed using the Best Pair antibodies identified in Table 2, providing highly sensitive, high-throughput detection assays for polyglutamine-expanded (mHTT) and total human HTT in multiple cell systems. The platform used for the assay is the ELISA-based Meso Scale Discovery (MSD) electrochemiluminescence assay platform.
Meso Scale Discovery (MSD) 96-well or 384-well plates were coated overnight at 4° C. with MW1 (expanded polyglutamine) or MAB2166 monoclonal antibody (for capture) at a concentration of 1 μg/mL in PBS (30 μL per well). Plates were then washed three times with 300 μL wash buffer (0.05% Tween-20 in PBS) and blocked (100 μL blocking buffer; 5% BSA in PBS) for 4-5 hours at room temperature with rotational shaking and then washed three times with wash buffer.
Samples (25 μL) were transferred to the antibody-coated MSD plate and incubated overnight at 4° C. After removal of the lysates, the plate was washed three times with wash buffer, and 25 μL of #5656S (Cell signaling; rabbit monoclonal) secondary antibody (diluted to 0.25 μg/mL in 0.05% Tween-20 in blocking buffer) was added to each well and incubated with shaking for 1 Hour at room temperature. Following incubation with the secondary antibody, the wells were rinsed with wash buffer after which 25 μL of goat anti-rabbit SULFO TAG secondary detection antibody (required aspect of the MSD system) (diluted to 0.25 μg/mL in 0.05% Tween-20 in blocking buffer) was added to each well and incubated with shaking for 1 hour at room temperature. After rinsing three times with wash buffer, 150 μL of read buffer T with surfactant (MSD) were added to each empty well, and the plate was imaged on a SI 6000 imager (MSD) according to manufacturers' instructions provided for 96- or 384-well plates.
(In general: ELISA stands for enzyme-linked immunosorbent assay.)
For `CN(c1ccc(-c2ccc(-c3ccnc(O)c3)cc2O)nn1)C1CC(C)(C)NC(C)(C)C1` [Cpd 170, 4-(3-hydroxy-4-(6-(methyl(2,2,6,6-tetramethylpiperidin-4-yl)amino)pyridazin-3-yl)phenyl)pyridin-2-ol], the negative logarithm of the IC50 (pIC50) is ≥ 7.00.

`CC1(C)CC(Oc2ccc(-c3c(F)cc(-c4cn[nH]c4)cc3F)nn2)CC(C)(C)N1` [Cpd 458, 3-[2,6-difluoro-4-(1H-pyrazol-4-yl)phenyl]-6-[(2,2,6,6-tetramethylpiperidin-4-yl)oxy]pyridazine] had a negative-log IC50 (pIC50) of 5.05 to 5.52. With `CC1(C)CC(Oc2ccc(-c3ccc4nccn4c3)nn2)CC(C)(C)N1` [Cpd 446, 6-{6-[(2,2,6,6-tetramethylpiperidin-4-yl)oxy]pyridazin-3-yl}imidazo[1,2-a]pyridine] the figure was 5.05 to 5.52. Under `Oc1cc(-c2cn[nH]c2)ccc1-c1ccc(OC2CCNCC2)nn1` [Cpd 432, 2-[6-(piperidin-4-yloxy)pyridazin-3-yl]-5-(1H-pyrazol-4-yl)phenol] stands 6.30 to 7.00. Under `Oc1cc(-c2cn[nH]c2)ccc1-c1ccc(NC2C[C@H]3CC[C@@H](C2)N3)nn1` (stereo partly drawn) [Cpd 433, 2-{6-[(1R,5S)-8-azabicyclo[3.2.1]oct-3-ylamino]pyridazin-3-yl}-5-(1H-pyrazol-4-yl)phenol] stands 6.30 to 7.00; under `Cc1cnc(-c2ccc(-c3ccc(N(C)C4CC(C)(C)NC(C)(C)C4)nn3)c(O)c2)o1` [Cpd 44, 5-(5-methyl-oxazol-2-yl)-2-(6-(methyl-(2,2,6,6-tetramethylpiperidin-4-yl)-amino)-pyridazin-3-yl)phenol], ≥ 7.00. On to “5-(3,5-dimethyl-1H-pyrazol-4-yl)-2-{6-[(2,2,6,6-tetramethylpiperidin-4-yl)oxy]pyridazin-3-yl}phenol [Cpd 451]”, for which the pIC50 is 5.05 to 5.52. With `CC1(C)CC(Oc2ccc(-c3ccc(-c4cn[nH]c4)s3)nn2)CC(C)(C)N1` [Cpd 448, 3-[5-(1H-pyrazol-4-yl)thiophen-2-yl]-6-[(2,2,6,6-tetramethylpiperidin-4-yl)oxy]pyridazine], the pIC50 is 5.05 to 5.52.

`CC1(C)CC(Oc2ccc(-c3ccc(-c4cn[nH]c4)cc3)nn2)CC(C)(C)N1` [Cpd 435, 3-[4-(1H-pyrazol-4-yl)phenyl]-6-[(2,2,6,6-tetramethylpiperidin-4-yl)oxy]pyridazine] showed a pIC50 of 6.00 to 6.30. On to `CN(c1nnc(-c2ccc(-c3cn[nH]c3)cc2O)s1)C1CC(C)(C)NC(C)(C)C1` [Cpd 393], for which the negative logarithm of the IC50 (pIC50) is ≥ 7.00.

In turn, `CN(c1ccc(-c2ccc(-c3cn[nH]c3)cc2O)nn1)C1CCNCC1` [Cpd 426, 2-{6-[methyl(piperidin-4-yl)amino]pyridazin-3-yl}-5-(1H-pyrazol-4-yl)phenol] gave a negative logarithm of the IC50 (pIC50) of 6.30 to 7.00.

Consider `CC1(C)CC(Oc2ccc(-c3ccc(-n4cccn4)cc3O)nn2)CC(C)(C)N1` [Cpd 63, 5-1H-pyrazol-1-yl-2-(6-(2,2,6,6-tetramethylpiperidin-4-yl-oxy)-pyridazin-3-yl)phenol], for which the negative-log IC50 (pIC50) is ≥ 7.00. With `CC1CC(Oc2ccc(-c3ccc(-n4cccn4)cc3O)nn2)CC(C)N1` (stereo not shown) [Cpd 441, 2-{6-[(2,6-dimethylpiperidin-4-yl)oxy]pyridazin-3-yl}-5-(1H-pyrazol-1-yl)phenol] the figure was 5.05 to 5.52; with `CN(c1nnc(-c2ccc(-c3cnn(C)c3)cc2O)s1)C1CC(C)(C)NC(C)(C)C1` [Cpd 315], ≥ 7.00. With `CC1(C)CC(Nc2ccc(-c3ccc(-c4cn[nH]c4)cc3O)nn2)CC(C)(C)N1` [Cpd 413, 5-(1H-pyrazol-4-yl)-2-{6-[(2,2,6,6-tetramethylpiperidin-4-yl)amino]pyridazin-3-yl}phenol], the negative logarithm of the IC50 (pIC50) is ≥ 7.00. Consider `CC1(C)CC(Oc2ccc(-c3ccc(-n4cc(N)cn4)cc3O)nn2)CC(C)(C)N1` [Cpd 421, 5-(4-amino-1H-pyrazol-1-yl)-2-{6-[(2,2,6,6-tetramethylpiperidin-4-yl)oxy]pyridazin-3-yl}phenol], for which the negative-log IC50 (pIC50) was ≥ 7.00. With “3-[2-methoxy-4-(1H-pyrazol-1-yl)phenyl]-6-[(2,2,6,6-tetramethylpiperidin-4-yl)oxy]pyridazine [Cpd 447]”, the negative logarithm of the IC50 (pIC50) was 5.05 to 5.52. Under `CC1(C)CC(Oc2ccc(-c3ccc(-c4cn[nH]c4)nc3O)nn2)CC(C)(C)N1` [Cpd 461, 6-(1H-pyrazol-4-yl)-3-{6-[(2,2,6,6-tetramethylpiperidin-4-yl)oxy]pyridazin-3-yl}pyridin-2-ol] stands 5.05 to 5.52; under `CN(c1ccc(-c2ccc(-c3cn[nH]c3)cc2Cl)nn1)C1CC(C)(C)NC(C)(C)C1` [Cpd 456, 6-[2-chloro-4-(1H-pyrazol-4-yl)phenyl]-N-methyl-N-(2,2,6,6-tetramethylpiperidin-4-yl)pyridazin-3-amine], 5.05 to 5.52. Under `Oc1cc(-c2cn[nH]c2)ccc1-c1ccc(C2=CCNCC2)nn1` [Cpd 424, 5-(1H-pyrazol-4-yl)-2-[6-(1,2,3,6-tetrahydropyridin-4-yl)pyridazin-3-yl]phenol] stands 6.30 to 7.00; under `CN(c1ccc(-c2cc(F)c(-c3cn[nH]c3)cc2F)nn1)C1CC(C)(C)NC(C)(C)C1` [Cpd 428, 6-[2,5-difluoro-4-(1H-pyrazol-4-yl)phenyl]-N-methyl-N-(2,2,6,6-tetramethylpiperidin-4-yl)pyridazin-3-amine], 6.30 to 7.00; under `Oc1cc(-c2cn[nH]c2)ccc1-c1ccc(OC2C[C@H]3CC[C@@H](C2)N3)nn1` (stereo partly drawn) [Cpd 415, 2-[6-((1R,5S)-8-azabicyclo[3.2.1]oct-3-yloxy)pyridazin-3-yl]-5-(1H-pyrazol-4-yl)phenol], ≥ 7.00. With `Cn1cc2cc(-c3ccc(OC4CC(C)(C)NC(C)(C)C4)nn3)ccc2n1` [Cpd 443, 2-methyl-5-{6-[(2,2,6,6-tetramethylpiperidin-4-yl)oxy]pyridazin-3-yl}-2H-indazole] the figure was 5.05 to 5.52; with `CN(c1nnc(-c2c(F)cc(-c3cn[nH]c3)cc2F)s1)C1CC(C)(C)NC(C)(C)C1` [Cpd 352], 6.30 to 7.00; with `Oc1cc(-c2cn[nH]c2)ccc1-c1ccc(NC2C[C@H]3CC[C@@H](C2)N3)nn1` (stereo partly drawn) [Cpd 412, 2-[6-((1R,5S)-8-azabicyclo[3.2.1]oct-3-ylamino)pyridazin-3-yl]-5-(1H-pyrazol-4-yl)phenol], ≥ 7.00.

The compound `Cn1cc(-c2csc(-c3ccc(OC4CC(C)(C)NC(C)(C)C4)nn3)c2)cn1` [Cpd 438, 3-[4-(1-methyl-1H-pyrazol-4-yl)thiophen-2-yl]-6-[(2,2,6,6-tetramethylpiperidin-4-yl)oxy]pyridazine] showed a negative logarithm of the IC50 (pIC50) of 5.52 to 6.00. Under `COc1cc(-n2cc([N+](=O)[O-])cn2)ccc1-c1ccc(OC2CC(C)(C)NC(C)(C)C2)nn1` [Cpd 454, 3-[2-methoxy-4-(4-nitro-1H-pyrazol-1-yl)phenyl]-6-[(2,2,6,6-tetramethylpiperidin-4-yl)oxy]pyridazine] stands 5.05 to 5.52; under `CN(c1nnc(-c2ccc(-c3ccn(C)c(=O)c3)cc2O)s1)C1CC(C)(C)NC(C)(C)C1` [Cpd 318], ≥ 7.00. Under `Cn1cc(-c2ccc(-c3ccc(OC4CC(C)(C)NC(C)(C)C4)nn3)s2)cn1` [Cpd 449, 3-[5-(1-methyl-1H-pyrazol-4-yl)thiophen-2-yl]-6-[(2,2,6,6-tetramethylpiperidin-4-yl)oxy]pyridazine] stands 5.05 to 5.52; under `COc1cc(Cl)ccc1-c1ccc(OC2CC(C)(C)NC(C)(C)C2)nn1` [Cpd 444, 3-(4-chloro-2-methoxyphenyl)-6-[(2,2,6,6-tetramethylpiperidin-4-yl)oxy]pyridazine], 5.05 to 5.52; under `Oc1cc(-c2cn[nH]c2)ccc1-c1ccc(N2CC3(CCNCC3)C2)nn1` [Cpd 439, 2-[6-(2,7-diazaspiro[3.5]non-2-yl)pyridazin-3-yl]-5-(1H-pyrazol-4-yl)phenol], 5.52 to 6.00. As for `CN(c1nnc(-c2ccc(-c3cn[nH]c3)c(F)c2F)s1)C1CC(C)(C)NC(C)(C)C1` [Cpd 348], the pIC50 was ≥ 7.00. With `CN(c1ccc(-c2cc3cccnc3cc2O)nn1)C1CC(C)(C)NC(C)(C)C1` [Cpd 207, 6-(6-(methyl(2,2,6,6-tetramethylpiperidin-4-yl)amino)pyridazin-3-yl)quinolin-7-ol] the figure was 6.30 to 7.00. With `CN(c1ccc(-c2cc3ccccc3cc2O)nn1)C1CC(C)(C)NC(C)(C)C1` [Cpd 26, 3-(6-(methyl(2,2,6,6-tetramethylpiperidin-4-yl)amino)pyridazin-3-yl)naphthalen-2-ol] the figure was 6.30 to 7.00; with `CN(c1ccc(-c2cc3cnccc3cc2O)nn1)C1CC(C)(C)NC(C)(C)C1` [Cpd 212, 7-(6-(methyl(2,2,6,6-tetramethylpiperidin-4-yl)amino)pyridazin-3-yl)isoquinolin-6-ol], ≥ 7.00. Under `CN(c1ccc(-c2ccc(-c3cn[nH]c3)cc2O)nn1)C1C[C@H]2CC[C@@H](C1)N2` (stereo partly drawn) [Cpd 411, 2-{6-[(1R,5S)-8-azabicyclo[3.2.1]oct-3-yl(methyl)amino]pyridazin-3-yl}-5-(1H-pyrazol-4-yl)phenol] stands ≥ 7.00.

As for “5-(5-methyl-1H-pyrazol-4-yl)-2-{6-[(2,2,6,6-tetramethylpiperidin-4-yl)oxy]pyridazin-3-yl}phenol [Cpd 418]”, the negative logarithm of the IC50 (pIC50) was ≥ 7.00.
